Assays:
Format in all cases: in vivo
Abutilon theophrasti [1] = test: Herbicidal action post-emergence, greenhouse pot test
Method in brief: (§1)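 Sandy loam pots, greenhouse; one-leaf stage (2–3 wk post-sowing); WP/EC spray as aqueous suspension/emulsion + 0.5% additive, 600 L/ha; rate ≤80 g/ha; visual % efficacy vs untreated at ~3 wk.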

Alopecurus myosuroides [2] = test: as above; settings: application rate 80 g/ha, scored visually after about 3 weeks vs untreated controls
Method in brief: as §1

Amaranthus retroflexus [3] = test: as above
Method in brief: as §1

Echinochloa crus-galli [4] = test: as above
Method in brief: as §1

Lolium rigidum [5] = test: as above; settings: application rate 80 g/ha
Method in brief: as §1

Matricaria inodora [6] = test: as above
Method in brief: as §1

Pharbitis purpurea [7] = test: as above
Method in brief: as §1

Polygonum convolvulus [8] = test: as above
Method in brief: as §1

Setaria viridis [9] = test: as above
Method in brief: as §1

Stellaria media [10] = test: as above
Method in brief: as §1

Veronica persica [11] = test: as above
Method in brief: as §1

Viola tricolor [12] = test: as above
Method in brief: as §1

Oryza sativa = test: Crop compatibility post-emergence, greenhouse pot test
Method in brief: (§2)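 Visual % damage versus untreated plants, read about 3 weeks after treatment (100% = plants died, 0% = as control). Crops were sown in sandy loam pots in a greenhouse and sprayed at one-leaf stage with WP/EC compound in water with 0.5% additive, 600 L/ha.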

Triticum aestivum = test: as above; settings: application rate 20 g/ha
Method in brief: as §2

Abutilon theophrasti [13] = test: Herbicidal action pre-emergence, greenhouse pot test
Excerpt: (§3) Seeds of mono- and dicotyledonous weeds and crop plants were laid out in plastic or organic plant pots and covered with soil. The compounds of the invention formulated in the form of wettable powders (WP) or as emulsion concentrates (EC) were then applied to the surface of the covering soil as an aqueous suspension or emulsion with addition of 0.5% additive at a water application rate equivalent to 600 L/ha. After the treatment, the pots were placed in a greenhouse and kept under good growth conditions for the test plants. After about 3 weeks, the efficacy of the preparations was scored visually as a percentage by comparison with untreated controls. For example, 100% efficacy=plants have died. 0% efficacy=like control plants. Tables B1 to B17 below show the efficacies of selected compounds of the general formula (I) according to tables I.1 to I.50 on various harmful plants and an application rate corresponding to 320 g/ha or lower that were obtained by the aforementioned trial method.

Alopecurus myosuroides [14] = test: as above; settings: application rate 320 g/ha
Excerpt: as §3

Amaranthus retroflexus [15] = test: as above
Excerpt: as §3

Cyperus esculentus = test: as above; settings: application rate 320 g/ha
Excerpt: as §3

Echinochloa crus-galli [16] = test: as above; settings: application rate 320 g/ha
Excerpt: as §3

Hordeum murinum = test: as above; settings: application rate 320 g/ha
Excerpt: as §3

Lolium rigidum [17] = test: as above; settings: application rate 320 g/ha
Excerpt: as §3

Pharbitis purpurea [18] = test: as above
Excerpt: as §3

Polygonum convolvulus [19] = test: as above
Excerpt: as §3

Setaria viridis [20] = test: as above
Excerpt: as §3

Stellaria media [21] = test: as above
Excerpt: as §3

Veronica persica [22] = test: as above
Excerpt: as §3

Viola tricolor [23] = test: as above
Excerpt: as §3

Matricaria inodora [24] = test: as above
Excerpt: as §3, with “according to tables I.1 to I.50 on various harmful plants and an application rate corresponding to 320 g/ha or lower that were obtained by the” left out

Avena fatua = test: as above; settings: application rate 320 g/ha
Excerpt: as §3

Zea mays = test: Crop compatibility post-emergence, greenhouse pot test; settings: application rate 20 g/ha
Method in brief: as §2

Row | SMILES | Triticum aestivum (Efficacy in %) (Triticum aestivum) | Abutilon theophrasti (Efficacy in %) (Abutilon theophrasti [1]; application rate 80 g/ha) | Amaranthus retroflexus (Efficacy in %) (Amaranthus retroflexus [3]; application rate 80 g/ha) | Echinochloa crus-galli (Efficacy in %) (Echinochloa crus-galli [4]; application rate 80 g/ha) | Lolium rigidum (Efficacy in %) (Lolium rigidum [5]) | Matricaria inodora (Efficacy in %) (Matricaria inodora [6]; application rate 80 g/ha) | Polygonum convolvulus (Efficacy in %) (Polygonum convolvulus [8]; application rate 80 g/ha) | Setaria viridis (Efficacy in %) (Setaria viridis [9]; application rate 80 g/ha) | Stellaria media (Efficacy in %) (Stellaria media [10]; application rate 80 g/ha) | Veronica persica (Efficacy in %) (Veronica persica [11]; application rate 80 g/ha) | Abutilon theophrasti (Efficacy in %) (Abutilon theophrasti [13]; application rate 80 g/ha) | Alopecurus myosuroides (Efficacy in %) (Alopecurus myosuroides [14]) | Amaranthus retroflexus (Efficacy in %) (Amaranthus retroflexus [15]; application rate 80 g/ha) | Cyperus esculentus (Efficacy in %) (Cyperus esculentus) | Echinochloa crus-galli (Efficacy in %) (Echinochloa crus-galli [16]) | Hordeum murinum (Efficacy in %) (Hordeum murinum) | Lolium rigidum (Efficacy in %) (Lolium rigidum [17]) | Pharbitis purpurea (Efficacy in %) (Pharbitis purpurea [18]; application rate 320 g/ha) | Stellaria media (Efficacy in %) (Stellaria media [21]; application rate 80 g/ha) | Matricaria inodora (Efficacy in %) (Matricaria inodora [24]; application rate 80 g/ha) | other results
1 | COC(=O)CC(C)OC(=O)C(C)Sc1cc(-n2c(=O)cc(C(F)(F)F)n(C)c2=O)c(F)cc1Cl (stereo not drawn) [I.1-22] | 20% | 100% | 100% | 100% | 90% | 100% | 100% | 100% | 100% | 100% | 100% | 80% | 100% | 90% | 100% | 100% | 100% | 100% | 100% | 100% | Alopecurus myosuroides (Efficacy in %) (Alopecurus myosuroides [2]): 80%; Pharbitis purpurea (Efficacy in %) (Pharbitis purpurea [7]; application rate 80 g/ha): 100%; Viola tricolor (Efficacy in %) (Viola tricolor [12]; application rate 80 g/ha): 100%; Oryza sativa (Efficacy in %) (Oryza sativa; application rate 5 g/ha): 0%; Polygonum convolvulus (Efficacy in %) (Polygonum convolvulus [19]; application rate 80 g/ha): 100%; Setaria viridis (Efficacy in %) (Setaria viridis [20]; application rate 80 g/ha): 100%; Veronica persica (Efficacy in %) (Veronica persica [22]; application rate 320 g/ha): 100%; Viola tricolor (Efficacy in %) (Viola tricolor [23]; application rate 80 g/ha): 100%
2 | CCNC(=O)COC(=O)C(C)Sc1cc(-n2c(=O)cc(C(F)(F)F)n(C)c2=O)c(F)cc1Cl (stereo not drawn) [I.1-183] | – | 100% | 100% | 100% | 100% | 100% | 100% | 100% | – | – | – | 90% | 100% | 80% | 100% | 90% | 90% | 100% | – | – | Alopecurus myosuroides (Efficacy in %) (Alopecurus myosuroides [2]): 80%; Pharbitis purpurea (Efficacy in %) (Pharbitis purpurea [7]; application rate 80 g/ha): 100%; Stellaria media (Efficacy in %) (Stellaria media [10]; application rate 20 g/ha): 100%; Veronica persica (Efficacy in %) (Veronica persica [11]; application rate 20 g/ha): 100%; Viola tricolor (Efficacy in %) (Viola tricolor [12]; application rate 20 g/ha): 100%; Oryza sativa (Efficacy in %) (Oryza sativa; application rate 20 g/ha): 20%; Zea mays (Efficacy in %) (Zea mays): 10%; Abutilon theophrasti (Efficacy in %) (Abutilon theophrasti [13]; application rate 320 g/ha): 100%; Avena fatua (Efficacy in %) (Avena fatua): 90%; Polygonum convolvulus (Efficacy in %) (Polygonum convolvulus [19]; application rate 320 g/ha): 100%; Setaria viridis (Efficacy in %) (Setaria viridis [20]; application rate 320 g/ha): 100%; Stellaria media (Efficacy in %) (Stellaria media [21]; application rate 320 g/ha): 100%; Veronica persica (Efficacy in %) (Veronica persica [22]; application rate 320 g/ha): 100%; Viola tricolor (Efficacy in %) (Viola tricolor [23]; application rate 320 g/ha): 100%; Matricaria inodora (Efficacy in %) (Matricaria inodora [24]; application rate 320 g/ha): 100%

The next lines start with results.

Row | Triticum aestivum (Efficacy in %) (Triticum aestivum) | SMILES | Abutilon theophrasti (Efficacy in %) (Abutilon theophrasti [1]; application rate 80 g/ha) | Amaranthus retroflexus (Efficacy in %) (Amaranthus retroflexus [3]; application rate 80 g/ha) | Echinochloa crus-galli (Efficacy in %) (Echinochloa crus-galli [4]; application rate 80 g/ha) | Lolium rigidum (Efficacy in %) (Lolium rigidum [5]) | Matricaria inodora (Efficacy in %) (Matricaria inodora [6]; application rate 80 g/ha) | Polygonum convolvulus (Efficacy in %) (Polygonum convolvulus [8]; application rate 80 g/ha) | Setaria viridis (Efficacy in %) (Setaria viridis [9]; application rate 80 g/ha) | Stellaria media (Efficacy in %) (Stellaria media [10]; application rate 80 g/ha) | Veronica persica (Efficacy in %) (Veronica persica [11]; application rate 80 g/ha) | Abutilon theophrasti (Efficacy in %) (Abutilon theophrasti [13]; application rate 80 g/ha) | Alopecurus myosuroides (Efficacy in %) (Alopecurus myosuroides [14]) | Amaranthus retroflexus (Efficacy in %) (Amaranthus retroflexus [15]; application rate 80 g/ha) | Cyperus esculentus (Efficacy in %) (Cyperus esculentus) | Echinochloa crus-galli (Efficacy in %) (Echinochloa crus-galli [16]) | Hordeum murinum (Efficacy in %) (Hordeum murinum) | Lolium rigidum (Efficacy in %) (Lolium rigidum [17]) | Pharbitis purpurea (Efficacy in %) (Pharbitis purpurea [18]; application rate 320 g/ha) | Stellaria media (Efficacy in %) (Stellaria media [21]; application rate 80 g/ha) | Matricaria inodora (Efficacy in %) (Matricaria inodora [24]; application rate 80 g/ha) | other results
3 | 20% | COC(=O)COC(=O)C(C)Sc1cc(-n2c(=O)cc(C(F)(F)F)n(C)c2=O)c(F)cc1Cl (stereo not drawn) [I.1-42] | – | – | – | 90% | – | – | – | – | 100% | 100% | 90% | – | 100% | 100% | 100% | 100% | – | 100% | 100% | Abutilon theophrasti (Efficacy in %) (Abutilon theophrasti [1]; application rate 20 g/ha): 100%; Amaranthus retroflexus (Efficacy in %) (Amaranthus retroflexus [3]; application rate 20 g/ha): 100%; Echinochloa crus-galli (Efficacy in %) (Echinochloa crus-galli [4]; application rate 20 g/ha): 100%; Matricaria inodora (Efficacy in %) (Matricaria inodora [6]; application rate 20 g/ha): 100%; Pharbitis purpurea (Efficacy in %) (Pharbitis purpurea [7]; application rate 20 g/ha): 100%; Polygonum convolvulus (Efficacy in %) (Polygonum convolvulus [8]; application rate 20 g/ha): 100%; Setaria viridis (Efficacy in %) (Setaria viridis [9]; application rate 20 g/ha): 100%; Stellaria media (Efficacy in %) (Stellaria media [10]; application rate 20 g/ha): 100%; Viola tricolor (Efficacy in %) (Viola tricolor [12]; application rate 20 g/ha): 100%; Oryza sativa (Efficacy in %) (Oryza sativa; application rate 20 g/ha): 10%; Amaranthus retroflexus (Efficacy in %) (Amaranthus retroflexus [15]; application rate 20 g/ha): 100%; Avena fatua (Efficacy in %) (Avena fatua): 90%; Pharbitis purpurea (Efficacy in %) (Pharbitis purpurea [18]; application rate 80 g/ha): 100%; Polygonum convolvulus (Efficacy in %) (Polygonum convolvulus [19]; application rate 80 g/ha): 100%; Setaria viridis (Efficacy in %) (Setaria viridis [20]; application rate 80 g/ha): 100%; Veronica persica (Efficacy in %) (Veronica persica [22]; application rate 80 g/ha): 100%; Viola tricolor (Efficacy in %) (Viola tricolor [23]; application rate 80 g/ha): 100%
4 | 20% | COC(=O)C(C)OC(=O)C(C)Sc1cc(-n2c(=O)cc(C(F)(F)F)n(C)c2=O)c(F)cc1Cl (stereo not drawn) [I.1-72] | – | – | 100% | – | 100% | 100% | – | 100% | 100% | 100% | – | – | 100% | 100% | 80% | – | 100% | 100% | 100% | Abutilon theophrasti (Efficacy in %) (Abutilon theophrasti [1]; application rate 20 g/ha): 100%; Amaranthus retroflexus (Efficacy in %) (Amaranthus retroflexus [3]; application rate 20 g/ha): 100%; Pharbitis purpurea (Efficacy in %) (Pharbitis purpurea [7]; application rate 20 g/ha): 100%; Setaria viridis (Efficacy in %) (Setaria viridis [9]; application rate 20 g/ha): 100%; Viola tricolor (Efficacy in %) (Viola tricolor [12]; application rate 80 g/ha): 100%; Oryza sativa (Efficacy in %) (Oryza sativa; application rate 20 g/ha): 10%; Amaranthus retroflexus (Efficacy in %) (Amaranthus retroflexus [15]; application rate 20 g/ha): 100%; Avena fatua (Efficacy in %) (Avena fatua): 90%; Polygonum convolvulus (Efficacy in %) (Polygonum convolvulus [19]; application rate 80 g/ha): 100%; Setaria viridis (Efficacy in %) (Setaria viridis [20]; application rate 80 g/ha): 100%; Veronica persica (Efficacy in %) (Veronica persica [22]; application rate 80 g/ha): 100%; Viola tricolor (Efficacy in %) (Viola tricolor [23]; application rate 80 g/ha): 100%
5 | 20% | CCOC(=O)CC(C)OC(=O)CSc1cc(-n2c(=O)cc(C(F)(F)F)n(C)c2=O)c(F)cc1Cl (stereo not drawn) [I.8-23] | 100% | 100% | 100% | – | – | – | 100% | 100% | 100% | – | – | 100% | 90% | 100% | 80% | 90% | 100% | 100% | 100% | Matricaria inodora (Efficacy in %) (Matricaria inodora [6]; application rate 20 g/ha): 100%; Pharbitis purpurea (Efficacy in %) (Pharbitis purpurea [7]; application rate 20 g/ha): 100%; Polygonum convolvulus (Efficacy in %) (Polygonum convolvulus [8]; application rate 20 g/ha): 100%; Viola tricolor (Efficacy in %) (Viola tricolor [12]; application rate 20 g/ha): 100%; Oryza sativa (Efficacy in %) (Oryza sativa; application rate 5 g/ha): 20%; Abutilon theophrasti (Efficacy in %) (Abutilon theophrasti [13]; application rate 320 g/ha): 100%; Polygonum convolvulus (Efficacy in %) (Polygonum convolvulus [19]; application rate 320 g/ha): 100%; Setaria viridis (Efficacy in %) (Setaria viridis [20]; application rate 320 g/ha): 100%; Veronica persica (Efficacy in %) (Veronica persica [22]; application rate 320 g/ha): 100%; Viola tricolor (Efficacy in %) (Viola tricolor [23]; application rate 320 g/ha): 100%

Reference: patent US11274083B2, “Substituted thiophenyl uracils, salts thereof and the use thereof as herbicidal agents” (Syngenta Crop Protection AG, priority 2017, dated 2022)
